Experimental data reported in patent publication US7579365B2 (ZIOPHRAM Oncology, Inc., priority 1998, dated 2009).
Values after ≈ are worked out from the molar mass of the structure shown. Like-named read-outs stand apart in the source and are kept apart here.

Columns and labels:
L1210 cell line = assay: XTT proliferation test/cytotoxicity test, L1210 cell line; type: cell-based, mouse; conditions: for EC50: Mus musculus; for XTT EC50 L1210: L1210 tumor cells
Protocol: (§1) In this test system, the effect of substances on the proliferation behavior of tumor cell lines is investigated. In the course of this, the cytotoxic potential of these substances is determined. The test method is described in Scudiero et al. 1988, Cancer Res. 48, 4827.
(§2) The following tumor cell lines were employed in the investigations:
(§3) The KB cell line an epidermal carcinoma of the oral cavity,
(§4) the L1210 cell line a lymphatic leukemia of the mouse, the LNCAP cell line a prostate carcinoma and the SK-OV-3 cell line an ovarian carcinoma.

SK-OV-3 cell line = assay: XTT proliferation test/cytotoxicity test, SK-OV-3 cell line; type: cell-based; conditions: for EC50: Homo sapiens; for XTT EC50 SK-OV-3: SK-OV-3 tumor cells
Protocol: as §1, §2, §3, §4

[1] = for Tox. p.o.: p.o. (Table 5)
L1210 = L1210 leukemia model in vivo (% ILS, survival time); design: species or system mouse; conditions: for ILS at 46.4 mg/kg: read-out: % ILS L1210
From the text: In the hollow fiber assay, both compounds were almost equally strongly active, while on L 1210 D-24851 was markedly more strongly active after oral and intraperitoneal administration than D-24241.

KB cell line = assay: XTT proliferation test/cytotoxicity test, KB cell line; type: cell-based; conditions: for EC50: Homo sapiens, KB, read-out: XTT EC50 KB
Protocol: as §1, §2, §3, §4

LNCAP cell line = assay: XTT proliferation test/cytotoxicity test, LNCAP cell line; type: cell-based; conditions: for EC50: Homo sapiens, read-out: XTT EC50 LNCaP
Protocol: as §1, §2, §3, §4

[2] = L1210, L1210 tumor cells, read-out: XTT EC50 L1210
[3] = SK-OV-3, SK-OV-3 tumor cells, read-out: XTT EC50 SK-OV-3
[4] = L1210, read-out: XTT EC50 L1210
[5] = SK-OV-3, read-out: XTT EC50 SK-OV-3

## O=C1c2c(O)ccc(O)c2C(=O)c2c(NCCNCCO)ccc(NCCNCCO)c21 [Mitoxantrone, reference compound]
L1210 cell line; [2]
  EC50: < 0.0003 µg/mL
SK-OV-3 cell line; [3]
  EC50: ~0.174 µg/mL (≈ 0.391 µM)
[1]; i.v. (Table 5)
  Tox. i.v.: 16 i.v. mg/kg
L1210; Mus musculus, L1210, iv, 1 × 4.64 mg/kg i.v.
  ILS at 4.64 mg/kg: 144%
KB cell line; KB tumor cells
  EC50: ~0.174 µg/mL (≈ 0.391 µM)
LNCAP cell line; LNCaP tumor cells
  EC50: ~0.017 µg/mL (≈ 0.0382 µM)

## O=C(Nc1cccnc1)C(=O)c1cn(Cc2ccccc2)c2ccccc12 [Example 4, N-(Pyridin-3-yl)-(1-benzylindol-3-yl)glyoxylamide]
L1210 cell line; [4]
  EC50: 1.75 µg/mL (≈ 4.92 µM)
SK-OV-3 cell line; [5]
  EC50: 9.2 µg/mL (≈ 25.9 µM)
KB cell line
  EC50: 17.5 µg/mL (≈ 49.2 µM)
LNCAP cell line; LNCaP
  EC50: > 31.6 µg/mL

## C[C@@H]1[O][Pt]2([NH]CC3CCC3C[NH]2)[O]C1=O (stereo partly drawn) [Lobaplatin, reference compound]
[1]; in vivo, ip
  Tox. i.p.: ≈34.0 i.p. mg/kg
L1210; 1 × 14.7 mg/kg ip
  % ILS L1210: 55.0% ILS

## O=C(Nc1ccc(F)cc1)C(=O)c1cn(Cc2ccccn2)c2ccccc12 [Example 11, N-(4-Fluorophenyl)-[1-(2-pyridylmethyl)indol-3-yl]glyoxylamide]
L1210 cell line; [2]
  EC50: 1.75 µg/mL (≈ 4.69 µM)
SK-OV-3 cell line; [3]
  EC50: 4.25 µg/mL (≈ 11.4 µM)
KB cell line; KB tumor cells
  EC50: 4.59 µg/mL (≈ 12.3 µM)
LNCAP cell line; LNCaP tumor cells
  EC50: 17.5 µg/mL (≈ 46.9 µM)

## O=P1(NCCCl)OCCCN1CCCl (stereo not drawn) [Ifosfamide, reference compound]
[1]; i.p. (Table 5)
  Tox. i.p.: ≈732 i.p. mg/kg
L1210; Mus musculus, L1210, ip, 1 × x 316 mg/kg i.p.
  ILS at 316 mg/kg: 89%

## O=C(Nc1ccncc1)C(=O)c1cn(Cc2ccccc2)c2ccccc12 [Example 9, N-(Pyridin-4-yl)-(1-benzylindol-3-yl)glyoxylamide]
L1210 cell line; [4]
  EC50: 0.09 µg/mL (≈ 0.253 µM)
SK-OV-3 cell line; [5]
  EC50: 1.75 µg/mL (≈ 4.92 µM)
KB cell line
  EC50: 0.05 µg/mL (≈ 0.141 µM)
LNCAP cell line; LNCaP
  EC50: 3.24 µg/mL (≈ 9.12 µM)

## N.N.O=C([O-])C1(C(=O)[O-])CCC1.[Pt+2] [Carboplatin]
[1]; i.p. (Table 5)
  Tox. i.p.: ≈158.0 mg/kg
[1]
  Tox. p.o.: ≈841.0 p.o mg/kg
L1210; 1 × 100 mg/kg i.p.
  % ILS L1210: 41% ILS

## O=C(Nc1ccc(F)cc1)C(=O)c1cn(Cc2cccnc2)c2ccccc12 [Example 12, N-(4-Fluorophenyl)-[1(3-pyridylmethyl)indol-3-yl]glyoxylamide]
L1210 cell line; [2]
  EC50: 0.017 µg/mL (≈ 0.0455 µM)
SK-OV-3 cell line; [3]
  EC50: > 31.6 µg/mL
KB cell line; KB tumor cells
  EC50: > 31.6 µg/mL
LNCAP cell line; LNCaP tumor cells
  EC50: > 31.6 µg/mL

## CN(Cc1cnc2nc(N)nc(N)c2n1)c1ccc(C(=O)N[C@@H](CCC(=O)O)C(=O)O)cc1 [Methotrexate, reference compound]
SK-OV-3 cell line; [3]
  EC50: > 31.6 µg/mL
L1210; Mus musculus, L1210, ip, 1 × 53.7 mg/kg i.p.
  ILS at 53.7 mg/kg: 39%
KB cell line; KB tumor cells
  EC50: ~0.007 µg/mL (≈ 0.0154 µM)

## C/C(=C\c1csc(C)n1)[C@@H]1C[C@@H]2O[C@]2(C)CCC[C@H](C)[C@H](O)[C@@H](C)C(=O)C(C)(C)[C@@H](O)CC(=O)O1 [Epothilone B, reference compound]
L1210 cell line
  XTT EC50 L1210: L1210 ~ 0.0017 μg/ml
SK-OV-3 cell line
  XTT EC50 SK-OV-3: SKOV3 ~ 0.0031 μg/ml
[1]; i.p. (Table 5)
  Tox. i.p.: ≈100.0 i.p. mg/kg
L1210; 1 × 10 mg/kg i.p.
  % ILS L1210: 44% ILS
KB cell line; KB tumor cells
  XTT EC50 KB: KB ~ 0.0002 μg/ml
LNCAP cell line; LNCaP tumor cells
  XTT EC50 LNCaP: LNCAR ~ 0.014 μg/ml

## O=C(Nc1ccncc1)C(=O)c1cn(Cc2ccccn2)c2ccccc12 [Example 16, N-(Pyridin-4-yl)-[1-(2-pyridylmethyl)indol-3-yl]glyoxylamide]
L1210 cell line; [2]
  EC50: 1.75 µg/mL (≈ 4.91 µM)
SK-OV-3 cell line; [3]
  EC50: 4.25 µg/mL (≈ 11.9 µM)
KB cell line; KB tumor cells
  EC50: 4.59 µg/mL (≈ 12.9 µM)
LNCAP cell line; LNCaP tumor cells
  EC50: 17.5 µg/mL (≈ 49.1 µM)

## CC[C@]1(O)C[C@H]2CN(CCc3c([nH]c4ccccc34)[C@@](C(=O)OC)(c3cc4c(cc3OC)N(C=O)[C@H]3[C@@](O)(C(=O)OC)[C@H](OC(C)=O)[C@]5(CC)C=CCN6CC[C@]43[C@@H]65)C2)C1 [Vincristine, reference compound]
L1210 cell line; [2]
  EC50: 0.004 µg/mL (≈ 0.00485 µM)
SK-OV-3 cell line; [3]
  EC50: 0.003 µg/mL (≈ 0.00364 µM)
[1]; i.v. (Table 5)
  Tox. i.v.: ≈3.0 i.v. mg/kg
L1210; Mus musculus, L1210, ip, 1 × 1.0 mg/kg i.p.
  ILS at 1 mg/kg: 29%
KB cell line; KB tumor cells
  EC50: < 0.001 µg/mL
LNCAP cell line; LNCaP, LNCaP tumor cells
  EC50: 0.004 µg/mL (≈ 0.00485 µM)

## CCCCCCCCCCCCCCCCOP(=O)([O-])OCC[N+](C)(C)C [Miltefosine]
[1]; i.p. (Table 5)
  Tox. i.p.: ≈46.4 i.p. mg/kg
[1]
  Tox. p.o.: ≈464-1000 mg/kg
L1210; no dose given
  L1210 antitumor action (Table 5): no action

## O=P1(N(CCCl)CCCl)NCCCO1 (stereo not drawn) [Cyclophosphamide, reference compound]
[1]; i.v. (Table 5)
  Tox. i.v.: ≈340.7 i.v. mg/kg
L1210; Mus musculus, L1210, iv
  ILS at 46.4 mg/kg: 40%

## O=C(Nc1ccncc1)C(=O)c1cn(Cc2cccnc2)c2ccccc12 [Example 10, N-(Pyridin-4-yl)-[1-(3-pyridylmethyl)indol-3-yl]glyoxylamide]
L1210 cell line; [2]
  EC50: 1.75 µg/mL (≈ 4.91 µM)
SK-OV-3 cell line; [3]
  EC50: 7.22 µg/mL (≈ 20.3 µM)
KB cell line; KB tumor cells
  EC50: 4.06 µg/mL (≈ 11.4 µM)
LNCAP cell line; LNCaP tumor cells
  EC50: > 31.6 µg/mL

## O=C(Nc1ccncc1)C(=O)c1cn(Cc2ccccc2Cl)c2ccccc12 [Example 14, N-(Pyridin-4-yl)-[1-(2-chlorobenzyl)indol-3-yl]glyoxylamide]
L1210 cell line; [2]
  EC50: 1.75 µg/mL (≈ 4.49 µM)
SK-OV-3 cell line; [3]
  EC50: 2.58 µg/mL (≈ 6.62 µM)
KB cell line; KB tumor cells
  EC50: 1.75 µg/mL (≈ 4.49 µM)
LNCAP cell line; LNCaP tumor cells
  EC50: 17.5 µg/mL (≈ 44.9 µM)

## COc1cc([C@@H]2c3cc4c(cc3[C@@H](O[C@@H]3O[C@@H]5CO[C@@H](C)O[C@H]5[C@H](O)[C@H]3O)[C@H]3COC(=O)[C@H]23)OCO4)cc(OC)c1O [Etoposide]
[1]; in vivo, ip
  Tox. i.p.: ≈158.0 i.p. mg/kg
[1]; in vivo, iv
  Tox. i.v.: >68.1 i.v. mg/kg
L1210; Mus musculus, L1210, ip, 1 × 46.4 mg/kg i.p.
  ILS at 46.4 mg/kg: 56%

## N.N.[Cl][Pt][Cl] [Cisplatin, reference compound]
L1210 cell line
  XTT EC50 L1210: L1210 0.30 μg/ml
L1210; 1 × 3.16 mg/kg i.p.
  % ILS L1210: 38.9% ILS

## O=C(Nc1cccnc1)C(=O)c1cn(Cc2ccc(F)cc2)c2ccccc12 [Example 3, N-(Pyridin-3-yl)-[1-(4-fluorobenzyl)indol-3-yl]glyoxylamide]
L1210 cell line; [2]
  EC50: 1.75 µg/mL (≈ 4.69 µM)
SK-OV-3 cell line; [3]
  EC50: 1.75 µg/mL (≈ 4.69 µM)
KB cell line; KB tumor cells
  EC50: 1.75 µg/mL (≈ 4.69 µM)
LNCAP cell line; LNCaP tumor cells
  EC50: 9.25 µg/mL (≈ 24.8 µM)

## COc1cccc2c1C(=O)c1c(O)c3c(c(O)c1C2=O)C[C@@](O)(C(=O)CO)C[C@@H]3O[C@H]1C[C@H](N)[C@H](O)[C@H](C)O1 [Adriamycin, reference compound]
L1210 cell line; [2]
  EC50: 0.174 µg/mL (≈ 0.32 µM)
SK-OV-3 cell line; [3]
  EC50: 0.089 µg/mL (≈ 0.164 µM)
[1]; i.v. (Table 5)
  Tox. i.v.: ≈27.0 i.v. mg/kg
L1210; Mus musculus, L1210, iv, 1 × 14.7 mg/kg i.v.
  ILS at 14.7 mg/kg: 111%
KB cell line; KB tumor cells
  EC50: 0.15 µg/mL (≈ 0.276 µM)
LNCAP cell line; LNCaP tumor cells
  EC50: 0.17 µg/mL (≈ 0.313 µM)

## O=c1[nH]cc(F)c(=O)[nH]1 [5-Fluorouracil, reference compound]
L1210; Mus musculus, L1210, ip, 1 × 147 mg/kg i.p.
  ILS at 147 mg/kg: 72%
L1210; Mus musculus, L1210, ip, 4 × 68.1 mg/kg i.p.
  ILS at 68.1 mg/kg: 83%

## O=C(Nc1ccc(F)cc1)C(=O)c1cn(Cc2ccc(F)cc2)c2ccccc12 [Example 6, N-(4-Fluorophenyl)-[1-(4-fluorobenzyl)indol-3-yl]glyoxylamide]
L1210 cell line; [2]
  EC50: 1.75 µg/mL (≈ 4.48 µM)
SK-OV-3 cell line; [3]
  EC50: 17.5 µg/mL (≈ 44.8 µM)
KB cell line; KB tumor cells
  EC50: 3.1 µg/mL (≈ 7.94 µM)
LNCAP cell line; LNCaP tumor cells
  EC50: > 31.6 µg/mL

## C/C=C/[C@@H]1O[C@H]([C@H](O)/C=C/C=C(\C)C[C@@H](C)/C=C(C)\C=C\[C@H]2CC=CC(=O)O2)C[C@@H](O)[C@@H]1C [Ratjadone, reference compound]
L1210 cell line
  XTT EC50 L1210: L1210 < 0.003 μg/ml
SK-OV-3 cell line
  XTT EC50 SK-OV-3: SKOV3 < 0.003 μg/ml
[1]; i.p. (Table 5)
  Tox. i.p.: ~16.0 mg/kg
[1]; i.v. (Table 5)
  Tox. i.v.: ~30.0 i.v. mg/kg
L1210; 1 × 1.47 mg/kg i.p.
  % ILS L1210: 22% ILS
KB cell line; KB tumor cells
  XTT EC50 KB: KB < 0.003 μg/ml
LNCAP cell line; LNCaP tumor cells
  XTT EC50 LNCaP: LNCAP < 0.003 μg/ml

## O=C(Nc1ccccn1)C(=O)c1cn(Cc2ccc(F)cc2)c2ccccc12 [Example 15, N-(Pyridin-2-yl)-[1-(4-fluorobenzyl)indol-3-yl]glyoxylamide]
L1210 cell line; [4]
  EC50: 3.1 µg/mL (≈ 8.3 µM)
SK-OV-3 cell line; [5]
  EC50: > 31.6 µg/mL
KB cell line
  EC50: > 31.6 µg/mL
LNCAP cell line; LNCaP
  EC50: > 31.6 µg/mL
